From US9096596B2 (Janssen Pharmaceutica NV, priority 2013, dated 2015)
Where two headings read alike, the source gives them in different places.

Legend:
rat P2X7 = rat P2X7 (Rattus norvegicus (Rat), UniProt Q64663); experiment: Ca2+ flux (FLIPR) in 1321N1 cells expressing recombinant rat P2X7 channel; assay type: cell-based; conditions: 250 μM BzATP, Calcium-4 dye
Experimental: (§1) 1321N1 cells expressing the recombinant human, rat or mouse P2X7 channel was cultured in HyQ DME/(HyClone/Dulbecco's Modified Eagle Medium) high glucose supplemented with 10% Fetal Bovine Serum (FBS) and appropriate selection marker. Cells were seeded at a density of 25000 cells/well (96-well clear bottom black walled plates) in 100 μl volume/well. On the day of the experiment, cell plates were washed with assay buffer, containing (in mM): 130 NaCl, 2 KCl, 1 CaCl2, 1 MgCl2, 10 HEPES, 5 glucose; pH 7.40 and 300 mOs. After the wash, cells were loaded with the Calcium-4 dye (Molecular Device) and incubated in the dark for 60 minutes. Test compounds were prepared at 250× the test concentration in neat DMSO. Intermediate 96-well compound plates were prepared by transferring 1.2 μL of the compound into 300 μL of assay buffer. A further 3× dilution occurred when transferring 50 μL/well of the compound plate to 100 μL/well in the cell plate. Cells were incubated with test compounds and dye for 30 minutes. […] The fluorescence change was measured 180 seconds after adding the agonist.

P2X7 [1] = biological target: T1, P2X7 (Homo sapiens (Human), UniProt Q99572); experiment: P2X7 antagonism in human PBMCs (IL-1β release, ELISA); assay type: cell-based; conditions: test compound 10 μM, IL-1β release in human PBMCs, LPS 30 ng/ml + Bz-ATP 0.5 mM, read-out: PBMC 10 μM (% control)
Experimental: Human blood was collected using a blood donor program. […] Cells were incubated for an additional 1.5 hours. […] In Table 2, when the data cell has been left blank, it is intended to mean that the compound was not tested in that assay.

P2X7 [2] = biological target: T1, P2X7; experiment: Ca2+ flux (FLIPR) in 1321N1 cells expressing recombinant human P2X7 channel; assay type: cell-based; conditions: 250 μM BzATP, Calcium-4 dye
Experimental: as §1

P2X7 [3] = biological target: T1, P2X7; experiment: Radioligand binding, human P2X7-1321N1 cell membranes, tracer tritiated A-804598
Experimental: On the day of the experiment, cell membrane preparations were made according to standard published methods. […] The compound can be prepared as described in the literature. […] The assay was terminated by filtration (GF/B filters pre-soaked with 0.3% PEI) and washed with washing buffer (Tris-HCl 50 mM). The IC50 generated in the binding assay was corrected for tracer concentration and affinity of the tracer to derive at the affinity (Ki) of the test compounds.

[4] = human P2X7-1321N1 membranes, 1 hour at 4° C., IC50 corrected for tracer concentration and affinity

rat P2X7, sequence (Q64663 whole entry): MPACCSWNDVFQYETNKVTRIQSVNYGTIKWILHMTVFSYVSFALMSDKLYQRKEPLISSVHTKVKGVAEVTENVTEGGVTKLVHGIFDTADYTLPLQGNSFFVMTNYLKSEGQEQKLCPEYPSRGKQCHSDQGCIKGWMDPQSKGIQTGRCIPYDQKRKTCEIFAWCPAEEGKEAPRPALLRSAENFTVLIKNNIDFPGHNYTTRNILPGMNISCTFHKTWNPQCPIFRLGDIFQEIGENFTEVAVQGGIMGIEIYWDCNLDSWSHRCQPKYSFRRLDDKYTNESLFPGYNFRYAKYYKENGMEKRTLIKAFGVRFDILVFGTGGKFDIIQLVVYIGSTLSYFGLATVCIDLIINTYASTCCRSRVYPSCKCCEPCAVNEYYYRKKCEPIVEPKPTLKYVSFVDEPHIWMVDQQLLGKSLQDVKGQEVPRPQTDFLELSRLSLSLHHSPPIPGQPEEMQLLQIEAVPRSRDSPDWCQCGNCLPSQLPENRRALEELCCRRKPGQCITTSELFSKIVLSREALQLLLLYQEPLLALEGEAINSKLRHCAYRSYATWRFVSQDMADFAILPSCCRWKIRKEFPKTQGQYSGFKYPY
T1 sequence (Q99572 whole entry): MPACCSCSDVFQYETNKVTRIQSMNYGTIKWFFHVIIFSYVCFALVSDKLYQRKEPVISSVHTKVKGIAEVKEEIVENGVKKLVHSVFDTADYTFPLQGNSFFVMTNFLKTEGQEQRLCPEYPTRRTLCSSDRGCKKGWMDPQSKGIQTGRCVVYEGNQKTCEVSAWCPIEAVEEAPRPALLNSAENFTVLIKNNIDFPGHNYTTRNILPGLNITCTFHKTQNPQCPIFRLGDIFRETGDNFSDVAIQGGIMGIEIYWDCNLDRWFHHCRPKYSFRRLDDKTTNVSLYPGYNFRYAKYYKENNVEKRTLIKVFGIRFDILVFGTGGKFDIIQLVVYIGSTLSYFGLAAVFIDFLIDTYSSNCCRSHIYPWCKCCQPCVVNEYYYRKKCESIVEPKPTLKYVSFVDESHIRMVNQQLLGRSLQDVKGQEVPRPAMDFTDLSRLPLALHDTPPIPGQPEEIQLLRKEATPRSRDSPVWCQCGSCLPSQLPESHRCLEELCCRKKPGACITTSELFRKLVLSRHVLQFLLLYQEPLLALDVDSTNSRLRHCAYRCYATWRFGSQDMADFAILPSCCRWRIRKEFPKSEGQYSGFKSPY

| Compound | IC50 (rat P2X7) | remaining activity at 10 µM (P2X7 [1]) | IC50 (P2X7 [2]) | Ki (P2X7 [3]) | Ki (P2X7 [3]; [4]) |
| --- | --- | --- | --- | --- | --- |
| O=C(c1cccc(C(F)(F)F)c1Cl)N1CCc2c(ncnc2-n2cncn2)C1 [Example 110, (4-(1H-1,2,4-triazol-1-yl)-5,6-dihydropyrido[3,4-d]pyrimidin-7(8H)-yl)(2-chloro-3-(trifluoromethyl)phenyl)methanone] | > 10000 nM | 20.1% | > 10000 nM | – | – |
| Cc1nc2c(c(-c3ccn[nH]3)n1)CC(C)N(C(=O)c1cccc(C)c1C)C2 (centres unmarked) [Example 132, (2,6-dimethyl-4-(1H-pyrazol-5-yl)-5,6-dihydropyrido[3,4-d]pyrimidin-7(8H)-yl)(2,3-dimethylphenyl)methanone] | 7160 nM | -0.1% | 532 nM | – | – |
| O=C(c1cc(F)c(F)cc1Cl)N1CCc2c(ncnc2-c2cnccn2)C1 [Example 16, 7-[(2-Chloro-4,5-difluorophenyl)carbonyl]-4-pyrazin-2-yl-5,6,7,8-tetrahydropyrido[3,4-d]pyrimidine] | > 10000 nM | 20.4% | 13200 nM | – | – |
| Cc1nc2c(c(-n3ccnn3)n1)CCN(C(=O)c1cccc(C(F)(F)F)c1Cl)C2 [Example 48, 7-{[2-Chloro-3-(trifluoromethyl)phenyl]carbonyl}-2-methyl-4-(1H-1,2,3-triazol-1-yl)-5,6,7,8-tetrahydropyrido[3,4-d]pyrimidine] | 10000 nM | – | 5010 nM | – | 2000 nM |
| Cc1nc2c(c(-c3ccccc3)n1)CCN(C(=O)c1cccc(Cl)c1Cl)C2 [Example 27, 7-[(2,3-Dichlorophenyl)carbonyl]-2-methyl-4-phenyl-5,6,7,8-tetrahydropyrido[3,4-d]pyrimidine] | 4550 nM | – | 117 nM | – | 427 nM |
| Cc1ccc(C(=O)N2Cc3nc(C)nc(-c4ccn[nH]4)c3CC2C)c(C)c1 (centres unmarked) [Example 131, (2,6-dimethyl-4-(1H-pyrazol-5-yl)-5,6-dihydropyrido[3,4-d]pyrimidin-7(8H)-yl)(2,4-dimethylphenyl)methanone] | > 10000 nM | 7.3% | 11400 nM | – | – |
| Cc1nc2c(c(-c3ccn[nH]3)n1)C[C@H](C)N(C(=O)c1ccc(F)cc1F)C2 (single isomer, unassigned) [Example 95, (S*)-(2,4-difluorophenyl)(2,6-dimethyl-4-(1H-pyrazol-5-yl)-5,6-dihydropyrido[3,4-d]pyrimidin-7(8H)-yl)methanone] | 101 nM | – | 64.7 nM | 31.6 nM | – |
| Cc1nc2c(c(-c3ccn[nH]3)n1)CC(C)N(C(=O)c1ccc(C#N)cc1C)C2 (centres unmarked) [Example 3, 4-(2,6-dimethyl-4-(1H-pyrazol-5-yl)-5,6,7,8-tetrahydropyrido[3,4-d]pyrimidine-7-carbonyl)-3-methylbenzonitrile] | 4250 nM | 2.5% | 798 nM | – | – |
| O=C(c1ccc(F)cc1Cl)N1CCc2c(ncnc2-c2ccn[nH]2)C1 [Example 21] | – | -15.5% | 280 nM | – | 39.8 nM |
| Cn1cc(-c2ncnc3c2CCN(C(=O)c2cccc(Cl)c2Cl)C3)cn1 [Example 5, 7-[(2,3-Dichlorophenyl)carbonyl]-4-(1-methyl-1H-pyrazol-4-yl)-5,6,7,8-tetrahydropyrido[3,4-d]pyrimidine] | > 10000 nM | – | 12800 nM | – | – |
| O=C(c1cccc(Cl)c1Cl)N1CCc2c(ncnc2-n2cccn2)C1 [Example 22, 7-[(2,3-Dichlorophenyl)carbonyl]-4-(1H-pyrazol-1-yl)-5,6,7,8-tetrahydropyrido[3,4-d]pyrimidine] | 28100 nM | – | 198 nM | – | – |
| Cc1nc2c(c(-c3ccn[nH]3)n1)CC(C)N(C(=O)c1cccc(C)c1F)C2 (centres unmarked) [Example 135, (2,6-dimethyl-4-(1H-pyrazol-5-yl)-5,6-dihydropyrido[3,4-d]pyrimidin-7(8H)-yl)(2-fluoro-3-methylphenyl)methanone] | 1870 nM | -1% | 492 nM | – | – |
| Cc1nc2c(c(-c3ccn[nH]3)n1)CC(C)N(C(=O)c1cccc(C#N)c1C)C2 (centres unmarked) [Example 61, 3-(2,6-dimethyl-4-(1H-pyrazol-5-yl)-5,6,7,8-tetrahydropyrido[3,4-d]pyrimidine-7-carbonyl)-2-methylbenzonitrile] | 3110 nM | -1.2% | 448 nM | – | – |
| O=C(c1cccc(Cl)c1Cl)N1CCc2c(ncnc2-c2cn[nH]c2)C1 [Example 4, 7-[(2,3-Dichlorophenyl)carbonyl]-4-(1H-pyrazol-4-yl)-5,6,7,8-tetrahydropyrido[3,4-d]pyrimidine] | 12500 nM | – | 388 nM | – | – |
| Cc1nc2c(c(-c3ccn[nH]3)n1)CCN(C(=O)c1ccc(Cl)c(F)c1Cl)C2 [Example 53, 7-[(2,4-Dichloro-3-fluorophenyl)carbonyl]-2-methyl-4-(1H-pyrazol-5-yl)-5,6,7,8-tetrahydropyrido[3,4-d]pyrimidine] | 1890 nM | – | 83.4 nM | – | 63.1 nM |
| O=C(c1ccc(F)c(Cl)c1Cl)N1CCc2c(ncnc2-c2cccc(F)n2)C1 [Example 129, (2,3-dichloro-4-fluorophenyl)(4-(6-fluoropyridin-2-yl)-5,6-dihydropyrido[3,4-d]pyrimidin-7(8H)-yl)methanone] | – | 2.5% | – | – | 39.8 nM |
| Cc1nc2c(c(-c3ccn[nH]3)n1)CC(C)N(C(=O)c1ccc(F)cc1C)C2 (centres unmarked) [Example 133, (2,6-dimethyl-4-(1H-pyrazol-5-yl)-5,6-dihydropyrido[3,4-d]pyrimidin-7(8H)-yl)(4-fluoro-2-methylphenyl)methanone] | – | 0.1% | 918 nM | – | – |
| Cc1nc2c(c(-c3ccn[nH]3)n1)CC(C)N(C(=O)c1cccc(F)c1C)C2 (centres unmarked) [Example 134, (2,6-dimethyl-4-(1H-pyrazol-5-yl)-5,6-dihydropyrido[3,4-d]pyrimidin-7(8H)-yl)(3-fluoro-2-methylphenyl)methanone] | 1270 nM | 0.4% | 331 nM | – | – |

Continued by falling IC50 (P2X7 [2]), values first:

| IC50 (rat P2X7) | remaining activity at 10 µM (P2X7 [1]) | IC50 (P2X7 [2]) | Ki (P2X7 [3]) | Ki (P2X7 [3]; [4]) | Compound |
| --- | --- | --- | --- | --- | --- |
| – | – | 63.4 nM | – | 77.6 nM | O=C(c1cccc(Cl)c1Cl)N1CCc2c(ncnc2-c2nccs2)C1 [Example 38, 7-[(2,3-Dichlorophenyl)carbonyl]-4-(1,3-thiazol-2-yl)-5,6,7,8-tetrahydropyrido[3,4-d]pyrimidine] |
| 156 nM | – | 34.8 nM | – | 63.1 nM | Cc1nc2c(c(-c3cscn3)n1)CCN(C(=O)c1cccc(C(F)(F)F)c1Cl)C2 [Example 44, 7-{[2-Chloro-3-(trifluoromethyl)phenyl]carbonyl}-2-methyl-4-(1,3-thiazol-4-yl)-5,6,7,8-tetrahydropyrido[3,4-d]pyrimidine] |
| – | 0.4% | 33.6 nM | – | 31.6 nM | Cc1nc2c(c(-c3ccn[nH]3)n1)CC(C)N(C(=O)c1ccc(Cl)cc1F)C2 (centres unmarked) [Example 87, (4-chloro-2-fluorophenyl)(2,6-dimethyl-4-(1H-pyrazol-5-yl)-5,6-dihydropyrido[3,4-d]pyrimidin-7(8H)-yl)methanone] |
| 1270 nM | – | 29.9 nM | – | 224 nM | O=C(c1cccc(C(F)(F)F)c1Cl)N1CCc2c(ncnc2-c2ccccc2)C1 [Example 1, 7-{[2-Chloro-3-(trifluoromethyl)phenyl]carbonyl}-4-phenyl-5,6,7,8-tetrahydropyrido[3,4-d]pyrimidine] |
| – | – | 20 nM | – | 79.4 nM | O=C(c1cccc(C(F)(F)F)c1Cl)N1CCc2c(ncnc2-c2ccc[nH]2)C1 [Example 42, 7-{[2-Chloro-3-(trifluoromethyl)phenyl]carbonyl}-4-(1H-pyrrol-2-yl)-5,6,7,8-tetrahydropyrido[3,4-d]pyrimidine] |
| – | – | 17.2 nM | 11.5 nM | – | Cc1nc2c(c(-c3ccn[nH]3)n1)C[C@H](C)N(C(=O)c1ccc(Cl)cc1F)C2 (single isomer, unassigned) [Example 89, (S*)-(4-chloro-2-fluorophenyl)(2,6-dimethyl-4-(1H-pyrazol-5-yl)-5,6-dihydropyrido[3,4-d]pyrimidin-7(8H)-yl)methanone] |
| – | – | 13.6 nM | 7.9 nM | – | Cc1nc2c(c(-c3ccn[nH]3)n1)C[C@@H](C)N(C(=O)c1cccc(C(F)(F)F)c1C)C2 (single isomer, unassigned) [Example 78, (R*)-(2,6-dimethyl-4-(1H-pyrazol-5-yl)-5,6-dihydropyrido[3,4-d]pyrimidin-7(8H)-yl)(2-methyl-3-(trifluoromethyl)phenyl)methanone] |
| – | – | 12.1 nM | – | 50.1 nM | O=C(c1cccc(C(F)(F)F)c1Cl)N1CCc2c(ncnc2-c2nccs2)C1 [Example 37, 7-{[2-Chloro-3-(trifluoromethyl)phenyl]carbonyl}-4-(1,3-thiazol-2-yl)-5,6,7,8-tetrahydropyrido[3,4-d]pyrimidine] |
